Data on 12 compounds can be found in paper PMC4002121, “Trimethylation of Histone H3 Lysine 36 by Human Methyltransferase PRDM9 Protein” (The Journal of Biological Chemistry, 2014).

Experiment [1] concerns the target T1, PRDM9 (Homo sapiens, UniProt Q9NQV7).
T1 construct: The wild-type PRDM9 gene (amino acids 195–385) was amplified by PCR; His tag (cleaved yes); made in house; host or cells: E. coli BL21(DE3)pRARE2-V2R
T1 sequence (Q9NQV7 195-385): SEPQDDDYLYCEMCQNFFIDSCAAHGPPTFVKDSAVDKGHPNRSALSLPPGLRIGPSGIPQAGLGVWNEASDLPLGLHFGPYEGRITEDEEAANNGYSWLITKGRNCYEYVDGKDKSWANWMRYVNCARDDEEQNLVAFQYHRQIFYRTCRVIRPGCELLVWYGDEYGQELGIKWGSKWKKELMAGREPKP
Kind of experiment: Isothermal titration calorimetry (ITC) binding to PRDM9. To be noted: AdoMet 1 mM injected into 50 μM PRDM9, 25 °C, 20 mM Tris-HCl pH 8.5, one-binding site model. As to the method:
Purified PRMD9 was dialyzed overnight in 20 mM Tris-HCl buffer, pH 8.5. […] ITC titrations were performed on a VP-ITC Micro Calorimeter from GE Healthcare at 25 °C by using 10-μl injections with a total of 25 injections. Data were fitted with a one-binding site model using Microcal Origin software.
FIGURE 7. […] Experiments were performed in duplicate.
For orientation: ITC needs no label: the signal is the heat of the interaction.

Experiment [2] has as its target T1, PRDM9. Kind of experiment: Assay optimization: effect of pH, salt and additives on PRDM9 activity. It counts as biochemical. On the procedure: Samples were incubated for 1 h at 23 °C and reactions were quenched by addition of 20 μl of 7.5 M guanidinium hydrochloride followed by addition of 160 μl of 20 mM Tris-HCl buffer, pH 8.0. Samples were added to wells of a streptavidin/scintillant-coated microplate (FlashPlate® PLUS: PerkinElmer Life Sciences).
FIGURE 3.

In experiment [3] the target is T1, PRDM9. Put plainly: Screening PRDM9 against known histone methyltransferase inhibitor library. The format is biochemical. Particulars: 2.5 μM H3K36me2 peptide, 62 μM AdoMet, 1 nM PRDM9, 10 mM Tris-HCl pH 8.5, 10 mM DTT, 0.01% Triton X-100, 1% DMSO, 30 min, 23 °C; triplicate. As to the method: The Z-factor was determined to ensure the optimized assay was amenable to high-throughput screening in a 384-well format ([46]). […] PRDM9 was then screened against a small library of known histone methyltransferase inhibitors using H3K36me2 as substrate under optimized assay conditions. In this assay, 1 nM PRDM9 was incubated with 2.5 μM H3K36me2 peptide, 62 μM AdoMet in a reaction buffer (10 mM Tris-HCl, pH 8.5, 10 mM DTT, 0.01% Triton X-100) along with compounds ranging in concentrations from 0 to 100 μM, with a final DMSO concentration of 1%. Reactions were incubated at 23 °C for 30 min. The IC50 value was determined for suramin using SigmaPlot.
FIGURE 5. […] Experiments were performed in triplicate as described under “Experimental Procedures.”

In experiment [4] the test system is PRDM9. Particulars: cited from earlier work. The source says:
Although PRDM9 H3K4 methyltransferase activity has been previously reported ([28]), to our knowledge its activity and substrate specificity have not been fully characterized. […] Our binding data also indicated tight H3K4 peptide binding (low micromolar). Previously, Hayashi et al. ([28]) reported that GST-PRDM9 specifically catalyzed met ...

In experiment [5] the target is T1, PRDM9. Put plainly: PRDM9 substrate specificity, radioactivity-based histone peptide methylation assay. To be noted: 10 μM biotinylated peptide, 200 μM AdoMet, 1 nM PRDM9, 10 mM Tris-HCl pH 8.5, 0.01% Triton X-100, 10 mM DTT, 30 min, 23 °C; n = 4. The format is biochemical. As to the method:
In this assay [^3H]AdoMet (PerkinElmer Life Sciences; catalog number NET155V250UC) was used as a methyl donor to methylate biotinylated histone peptide substrates. […] Samples were incubated for 30 min at 23 °C and the reaction was quenched by addition of 20 μl of 7.5 M guanidinium hydrochloride followed by addition of 160 μl of 20 mM Tris-HCl buffer, pH 8.0. Samples were added to wells of a streptavidin/scintillant-coated microplate (FlashPlate® PLUS; PerkinElmer Life Sciences). Biotinylated peptides would be captured in each well through their interaction with streptavidin, thereby bringing any incorporated [^3H]methyl in proximity of scintillant.
FIGURE 1. […] Data are presented as mean ± S.D. from four experiments.

The subject of the next experiment is sterile mouse hybrids. Particulars: via baculovirus; cited from earlier work. The text has this:
PRDM9 is a PR domain-containing protein with multiple zinc fingers that catalyze trimethylation of H3K4 ([28]). It is a meiosis-specific protein that has been reported to control activation of the short highly recombinogenic segments called recombination hot spots ([50]). The H3K4me3 mark is often associated with transcriptional activation ([51], [52]) and DNA repair ([53]). This methyl mark is also associated with recombination hot spot initiation in yeast and mice ([35], [36]) where double strand breaks occur prior to crossover events. However, H3K4me3 marks associated with hot spots are dis ...

A further experiment concerns HEK293 cells. Put plainly: H3K4 and H3K36 methylation in HEK293 cells overexpressing PRDM9, immunoblotting. The format is cell-based, human. To be noted: normalized to total H3. On the procedure: A FLAG-tagged control vector or FLAG-tagged PRDM9 construct were transfected into HEK293 cells using GeneJuice (Novagen). Transfected cells were serum-deprived prior to lysis in 50 mM Tris-HCl, 400 mM NaCl, 1 mM EDTA, 0.1% SDS, and 1% Triton X-100 supplemented with protease inhibitors. 30 μg of total cell lysate were processed for Western blotting and immunoblotted using specific antibodies to monitor the levels of H3K36me1 (Abcam, ab9048), H3K36me2 (Cell signaling Technology, 2901), H3K36me3 (Cell Signaling Technology, number 9763), H3K4me1 (Cell Signaling Technology, 9723), H3K4me2 (Abcam, ab32356), H3K4me3 (Cell Signaling Technology, number 9727S), and total H3 (Abcam, ab10799). The transfection efficiency of FLAG-PRDM9 was controlled by using an anti-FLAG antibody (FLAG M2 monoclonal, Sigma). Membrane bands were visualized using LiCor IRDye, 680RD anti-rabbit and 800CW anti-mouse secondary antibodies.
FIGURE 8. Trimethylation of H3K4 and H3K36 by PRDM9 in cells. […] Methylation levels of Lys-4 and Lys-36 were quantified and normalized to their respective total H3 levels. FLAG-PRDM9-transfected samples were normalized to samples transfected with FLAG Control vector. IB, immunoblot; CTL, control.

Where [6] appears, read: H3-(1–25) substrate 10 μM, 40 μM AdoMet, 100 nM PRDM9, 10 mM Tris-HCl pH 8.5, 1 h, 23 °C, n = 4.
Where [7] appears, read: H3-(1–25) substrate, 10 mM Tris-HCl pH 8.5.

“Also recorded” adds a separate entry of the source.

As a reminder, the Kd is the constant that tells how readily two partners part at equilibrium. In the case of `C[S+](CC[C@H](N)C(=O)[O-])C[C@H]1O[C@@H](n2cnc3c(N)ncnc32)[C@H](O)[C@@H]1O` (stereo partly shown) [AdoMet, S-adenosylmethionine], the equilibrium dissociation constant (Kd) on PRDM9 [1] turned out to be 18.6 µM.
Consider `C[S+](C)[O-]` [DMSO, dimethyl sulfoxide], for which the “effect on PRDM9 activity (in words)” value at PRDM9 [2] (setting [6]) was “maintained high levels of activity at all concentrations of DMSO”. For the same compound, the “DMSO concentration of maximum PRDM9 activity” value on PRDM9 [2] (setting [7]) is on record as 0.16%.
For the compound `O[C@@H](CS)[C@@H](O)CS` [DTT], at PRDM9 [2] (setting [6]), the “effect on PRDM9 activity (in words)” value was “increase in enzyme activity”. Further, on PRDM9 [2] (setting [7]), the “concentration of maximal PRDM9 activity (reducing agent)” value is listed as 10 mM.
In the case of `[Cl-].[Na+]` [NaCl], on PRDM9 [2] (setting [6]), the “NaCl concentration above which enzyme activity was abolished” value was “above 125 mM” and the “effect on PRDM9 activity (in words)” value is “sharp decrease in activity with increasing NaCl concentrations”.
For the compound `O=C(O)CCP(CCC(=O)O)CCC(=O)O` [TCEP, Tris(2-carboxyethyl)phosphine], at PRDM9 [2] (setting [6]), the “effect on PRDM9 activity (in words)” value is given as “sharp decrease in activity at increasing TCEP concentrations”. The “concentration of maximal PRDM9 activity (reducing agent)” value on PRDM9 [2] (setting [7]) worked out at 0.6 mM.
Usually IC50 stands for the concentration at which inhibition is half-maximal. On to `Cc1ccc(C(=O)Nc2ccc(S(=O)(=O)O)c3cc(S(=O)(=O)O)cc(S(=O)(=O)O)c23)cc1NC(=O)c1cccc(NC(=O)Nc2cccc(C(=O)Nc3cc(C(=O)Nc4ccc(S(=O)(=O)O)c5cc(S(=O)(=O)O)cc(S(=O)(=O)O)c45)ccc3C)c2)c1` [suramin], for which the IC50 against PRDM9 [3] was determined as 4.1 ± 0.1 µM.
On to “H3-(26–45): histone H3-(26–45) peptide on a peptide array”, for which, in the experiment with PRDM9 [4], the “binding of PRDM9 to peptide on a peptide array (in words)” value is on record as “Binding”.
Turning to “H3K36A: H3-(21–44) peptide with Lys-36 mutated to alanine”, the “PRDM9 methyltransferase activity with substrate (in words)” value with PRDM9 [5] was “not when Lys-36 was trimethylated or mutated to alanine”.
The same measure, in the same setting: the entry for K4A: K4A mutant of H3-(1–25) peptide is “No activity”; for “K4AK9A: K4AK9A mutant of H3-(1–25) peptide” it is “No activity”.
Consider “PRDM9: PR domain-containing protein 9, histone methyltransferase; FLAG-tagged in cells, residues 195–385 in vitro”, for which, in the experiment on sterile mouse hybrids, the “effect on sterile phenotype of mouse hybrids (in words)” value is listed as “rescued the sterile phenotype”. Moreover, the “mono- or dimethylation of H3K4 and H3K36 in cells (in words)” value in the experiment on HEK293 cells (HEK293 cells overexpressing PRDM9) is recorded as “not mono- or dimethylation of either mark”. The “trimethylation of H3K4 and H3K36 in cells (in words)” value in the experiment with HEK293 cells (HEK293 cells transfected with FLAG-PRDM9 vs FLAG control vector) was “significant increase in trimethylation of H3K4 and H3K36; also recorded: significant increase in H3K36 trimethylation as well as H3K4 trimethylation”.
In the case of Triton X-100, at PRDM9 [2] (setting [6]), the “effect on PRDM9 activity (in words)” value is listed as “Higher concentrations of Triton X-100 up to 0.25% did not further increase the activity”. For the same compound, the “Triton X-100 concentration that dramatically improved signal to noise ratio” value at PRDM9 [2] (concentrations as low as, H3-(1–25) substrate, 10 mM Tris-HCl pH 8.5) was at least 0.004%.
